{
  "source": "paper PMC10845951",
  "about": "“Characterization of a selective, iron-chelating antifungal compound that disrupts fungal metabolism and synergizes with fluconazole” (Microbiology Spectrum, 2024)",
  "key": {"C. glabrata cells [1]": {"tested_on": "C. glabrata cells", "test": "CellTiter-Glo assay in Candida (relative ATP levels)", "format": "cell-based, Candida glabrata", "conditions": "0.625, 2.5, 10 µM; 1, 3, 6, 24 h", "protocol": "The samples were incubated for 24 h at 30°C and then measured for OD600. Equal number of cells were harvested in each time point according to an OD600 of 0.1–0.4 and then centrifuged at 7000 rpm for 5 minutes to remove the supernatant. The cell pellets were resuspended in 100-µL YNB −iron and then transferred to a 96-well plate. Finally, the samples were treated with 100-µL CellTiter-Glo and then measured for luminescence using a plate reader."}, "[2]": {"tested_on": "Aft1/2 target genes FTR1, FET3, HMX1, LSO1 in WT S. cerevisiae", "test": "RT-qPCR of Aft1/2 target genes", "format": "cell-based, Saccharomyces cerevisiae", "conditions": "WT Sc cells, 10 µM, 24 h", "protocol": "WT and […] cells were grown overnight in complete supplement mixture (CSM). […] After 24 h of incubation, cells were collected, and total RNA purification, reverse transcription, and RT-qPCR were performed as previously described with minor modifications ([59], [66]). Briefly, total RNA was purified using the RNeasy Mini Kit (74104, Qiagen), and reverse transcription was performed using the QuantiTect Reverse Transcription Kit (205311, Qiagen). RT-qPCR experiments were done using the HOT FIREPol EvaGreen qPCR Mix (08-36-00001-10, Solis Biodyne) and a LightCycler 96 System (Roche). Expression of the 5S gene was used as a control. The primers used in RT-qPCR experiments are as follows: […]"}, "C. glabrata cells [3]": {"tested_on": "C. glabrata cells", "test": "Dead cell staining with propidium iodide", "format": "cell-based, Candida glabrata", "conditions": "24 h", "protocol": "Propidium iodide (Sigma) was freshly prepared to a final concentration of 5 µg/mL in PBS.\nThe samples were incubated at 30°C and harvested to a total number of cells equivalent to a 5-mL culture with an OD600 of 0.3 at 6 and 24 h. As a positive control for cell death, cells treated with DMSO were incubated at 75°C for 1 h. The cells were centrifuged at 7,000 rpm for 5 minutes to remove the supernatant, followed by resuspension of the cell pellets in 100-µL 5 µg/mL propidium iodide for 10 minutes in the dark at room temperature. The supernatant was removed by centrifugation at 7,000 rpm for 5 minutes, followed by washing with 500-µL PBS and a final centrifugation at 7,000 rpm for 5 minutes. Finally, the cells were resuspended in 150-µL PBS and measured for fluorescence intensity using a microplate reader.\nThe autofluorescence of the unstained treated samples was subtracted from raw fluorescence intensities of the stained samples and then normalized to DMSO. Normalized values were log transformed and then analyzed using one-way ANOVA and Tukey’s HSD post hoc test."}},
  "data": [
    {"smiles": "c1ccc(-c2cccc(-c3ccccn3)n2)nc1", "note": "[2,2′:6′,2′′-terpyridine]", "values": [
      {"measurement": "relative ATP levels (luminescence)", "setting": "C. glabrata cells [1]", "result": "concentration- and time-dependent reduction in luminescence"},
      {"measurement": "expression of Aft1/2 target genes FTR1, FET3, HMX1, LSO1", "setting": "[2]", "result": "robust activation"},
      {"measurement": "expression of control 5S RNA", "setting": "[2]", "result": "no effect"},
      {"measurement": "number of propidium iodide-positive cells", "setting": "C. glabrata cells [3]; 10 µM, vs DMSO", "result": "apparent reduction in the number of propidium iodide-positive cells"},
      {"measurement": "mode of antifungal effect", "setting": "C. glabrata cells [3]", "result": "cytostatic effect"},
      {"measurement": "propidium iodide fluorescence (cell death)", "setting": "C. glabrata cells [3]; increasing concentrations", "result": "no significant difference in fluorescence intensity compared to DMSO"}
    ]}
  ]
}
